From patent publication US20210275418A1, “Personal Care Compositions” (Colgate-Palmolive Company, priority 2020, published 2021)

What was measured:
Assay type in all cases: biochemical
tyrosinase = test: Tyrosinase inhibition, tyrosinase inhibitor screening kit (Sigma Aldrich MAK 257 Kit)
Experimental: A study of tyrosinase inhibition is conducted (e.g., Sigma Aldrich MAK 257 Kit) to investigate the efficacy of an exemplary composition of the present invention (0.312% lactic acid; 0.156% mandelic acid; and 0.078% pyruvic acid) and individual short chain fatty acids at the same concentrations.
A study of tyrosinase inhibition is conducted (e.g., Sigma Aldrich MAK 257 Kit) to investigate the efficacy of an exemplary composition of the present invention (0.312% mandelic acid and 0.156% pyruvic acid) and individual short chain fatty acids at the same concentrations.
The anti-tyrosinase activity of an exemplary composition of the present invention was compared to the anti-tyrosinase activity of individual short chain fatty acids. Assays were performed using a tyrosinase inhibitor screening kit from Sigma Aldrich (MAK 257 Kit); and following the manufacturer's protocol. The results of these experiments are described in Table 1 (below).
The anti-tyrosinase activity of an exemplary composition of the present invention was compared to the anti-tyrosinase activity of individual short chain fatty acids. Assays were performed using a tyrosinase inhibitor screening kit from Sigma Aldrich (MAK 257 Kit); and following the manufacturer's protocol. The results of these experiments are described in Table 4 (below).
Peels were diluted 1000× in buffer to prepare 0.1% working stock. The working stock was serially diluted 2× to test the peels at five doses (0.1 wt. %, 0.05 wt. %, 0.025 wt. %, 0.0125 wt. % and 0.00625 wt. %). The pH of all test samples and dilutions was measured before and after tyrosinase assay to exclude any effect of acid on the enzyme activity. The assay was performed using a commercial kit following manufacturer's protocol (e.g., MAK 257 Kit from Sigma Aldrich). LMP peels containing various concentrations of pyruvic acid at pH 2.5 (“R1 Peels”); LMP peels which were identically formulated to the R1 Peels, but with pH buffered to 3.6 (“R2 Peels”); and LMP′ peels which were identically formulated to the R2 Peels, other than the replacement of pyruvic acid with sodium pyruvate (“R3 Peels”), were all evaluated.

collagenase = test: Collagenase inhibition, collagenase inhibitor screening kit (Sigma Aldrich MAK 293 Kit)
Experimental: A study of collagenase inhibition is conducted (e.g., Sigma Aldrich MAK 293 Kit) to investigate the was conducted to investigate the efficacy of an exemplary composition of the present invention (1.25% lactic acid; 0.625% mandelic acid; and 0.312% pyruvic acid) and individual short chain fatty acids, at the same concentrations.
A study of collagenase inhibition is conducted (e.g., Sigma Aldrich MAK 293 Kit) to investigate the was conducted to investigate the efficacy of an exemplary composition of the present invention (1.25% mandelic acid and 0.625% pyruvic acid) and individual short chain fatty acids, at the same concentrations.
The anti-collagenase activity of an exemplary composition of the present invention was compared to the anti-collagenase activity of individual short chain fatty acids. Assays were performed using a collagenase inhibitor screening kit from Sigma Aldrich (MAK 293 Kit); and following the manufacturer's protocol. The results of these experiments are described in Table 2 (below).
The anti-collagenase activity of an exemplary composition of the present invention was compared to the anti-collagenase activity of individual short chain fatty acids. Assays were performed using a collagenase inhibitor screening kit from Sigma Aldrich (MAK 293 Kit); and following the manufacturer's protocol. The results of these experiments are described in Table 5 (below).

elastase = molecular target: T1, elastase (Homo sapiens, UniProt P08246); test: Elastase inhibition, elastase inhibitor screening kit (Sigma Aldrich MAK 213 Kit); conditions: Table 3, Example 7
T1 construct: purchased Sigma Aldrich MAK 213 Kit
T1 sequence (P08246 30-267): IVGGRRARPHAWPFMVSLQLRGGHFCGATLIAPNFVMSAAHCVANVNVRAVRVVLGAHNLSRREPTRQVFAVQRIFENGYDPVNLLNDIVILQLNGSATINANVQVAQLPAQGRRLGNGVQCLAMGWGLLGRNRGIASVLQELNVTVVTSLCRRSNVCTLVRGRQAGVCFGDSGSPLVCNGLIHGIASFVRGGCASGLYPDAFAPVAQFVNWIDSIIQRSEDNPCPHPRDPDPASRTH
Experimental: The anti-elastase activity of an exemplary composition of the present invention was compared to the anti-elastase activity of individual short chain fatty acids. Assays were performed using an elastase inhibitor screening kit from Sigma Aldrich (MAK 213 Kit); and following the manufacturer's protocol. The results of these experiments are described in Table 3 (below).

SMILES: O=C(O)C(O)c1ccccc1 (centres unmarked) [Mandelic Acid (M), mandelic acid]
- % Tyrosinase Inhibition (tyrosinase; Table 4, Example 8, 0.156 wt. %): 0.06%
- % Tyrosinase Inhibition (tyrosinase; Table A, Example 1, 0.156 wt. %): 0.06%
- % Tyrosinase Inhibition (tyrosinase; Table C, Example 3, 0.312 wt. %): 1.17%
- % Collagenase Inhibition (collagenase; Table 5, Example 9, 0.625 wt. %): 8.57%
- % Collagenase Inhibition (collagenase; Table B, Example 2, 0.625 wt. %): 8.57%
- % Collagenase Inhibition (collagenase; Table D, Example 4, 1.25 wt. %): 11.26%

SMILES: CC(O)C(=O)O (centres unmarked) [Lactic Acid (L), lactic acid]
- % Tyrosinase Inhibition (tyrosinase; Table 1, Example 5, 0.312 wt. %): 52.72%
- % Tyrosinase Inhibition (tyrosinase; Table 4, Example 8, 0.312 wt. %): 1.23%
- % Tyrosinase Inhibition (tyrosinase; Table A, Example 1, 0.312 wt. %): 2.23%
- % Collagenase Inhibition (collagenase; Table 2, Example 6, 1.25 wt. %): 40.32%
- % Collagenase Inhibition (collagenase; Table 5, Example 9, 1.25 wt. %): 12.71%
- % Collagenase Inhibition (collagenase; Table B, Example 2, 1.25 wt. %): 12.71%
- % Elastase Inhibition (elastase; 0.625 wt. %): 44.89%

SMILES: CC(=O)C(=O)O [Pyruvic Acid (P), pyruvic acid]
- % Tyrosinase Inhibition (tyrosinase; Table 1, Example 5, 0.078 wt. %): 29.29%
- % Tyrosinase Inhibition (tyrosinase; Table A, Example 1, 0.078 wt. %): 0.37%
- % Tyrosinase Inhibition (tyrosinase; Table C, Example 3, 0.156 wt. %): 26.62%
- % Collagenase Inhibition (collagenase; Table 2, Example 6, 0.312 wt. %): 8.79%
- % Collagenase Inhibition (collagenase; Table B, Example 2, 0.312 wt. %): 6.70%
- % Collagenase Inhibition (collagenase; Table D, Example 4, 0.625 wt. %): 9.58%
- % Elastase Inhibition (elastase; 0.156 wt. %): 20.21%
